Each compound was assayed against BRD4-BD1 (44-164) (Homo sapiens (Human), UniProt O60885) (assay: Alphascreen binding assay BRD4-BD1). Conditions: BRD4(1) H4; read-out: Biochemical activity (IC50 μM) BRD4(1) H4.
Method in brief: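 AlphaScreen signal (nickel acceptor, streptavidin donor beads, 7.5 µg/ml each, read 30 min after addition) reports displacement of biotin-H4 K5/K8/K12/K16-acetyl peptide from His-BRD4 BD1 (44-164) or tandem BD12 (1-477).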
In the case of `Cc1noc(C)c1-c1cnc2c(-c3cnn(C)c3)cn(Cc3c(F)cccc3F)c2c1` [P-0173, 4-[1-[(2,6-difluorophenyl)methyl]-3-(1-methylpyrazol-4-yl)pyrrolo[3,2-b]pyridin-6-yl]-3,5-dimethyl-isoxazole], the IC50 is reported as < 1 µM.
With `Cc1noc(C)c1-c1cnc2[nH]cc([S+]([O-])c3cccc(F)c3)c2c1` (stereo not drawn) [P-0142, 4-[3-(3-fluorophenyl)sulfinyl-1H-pyrrolo[2,3-b]pyridin-5-yl]-3,5-dimethyl-isoxazole] the IC50 was < 1 µM.
With `Cc1noc(C)c1-c1cnc2c(C#CCO)cn(S(=O)(=O)C3CCCC3)c2c1` [P-0156, 3-[1-cyclopentylsulfonyl-6-(3,5-dimethylisoxazol-4-yl)pyrrolo[3,2-b]pyridin-3-yl]prop-2-yn-1-ol] the IC50 was < 1 µM.
In the case of `Cc1noc(C)c1-c1cnc2c(-c3cnn(C)c3)cn(Cc3cscn3)c2c1` [P-0171, 3,5-dimethyl-4-[3-(1-methylpyrazol-4-yl)-1-(thiazol-4-ylmethyl)pyrrolo[3,2-b]pyridin-6-yl]isoxazole], the IC50 is reported as < 1 µM.
In the case of `COC(c1c(F)cccc1Cl)c1c[nH]c2ncc(-c3c(C)noc3C)cc12` (stereo not drawn) [P-0014, 4-[3[(2-chloro-6-fluoro-phenyl)-methoxy-methyl]-1H-pyrrolo[2,3-b]pyridin-5-yl]-3,5-dimethyl-isoxazole], the IC50 is reported as < 1 µM.
`Cc1noc(C)c1-c1cnc2c(-c3cnn(C4CCOC4)c3)cn(C(C)c3ccccc3)c2c1` (stereo not drawn) [P-0204, 3,5-dimethyl-4-[1-(1-phenyl-ethyl)-3-(1-tetrahydrofuran-3-ylpyrazol-4-yl)pyrrolo[3,2-b]pyridin-6-yl]isoxazole] was tested, and the IC50 was < 1 µM.
In the case of `Cc1noc(C)c1-c1cnc2c(C#CCF)cn(S(=O)(=O)C3CCCC3)c2c1` [P-0158, 4-[1-cyclopentylsulfonyl-3-(3-fluoroprop-1-ynyl)pyrrolo[3,2-b]pyridin-6-yl]-3,5-dimethyl-isoxazole], the IC50 is reported as < 1 µM.
In the case of `Cc1noc(C)c1-c1cnc2[nH]cc(C(c3ccc(F)cc3)C3CC3)c2c1` (stereo not drawn) [P-0064, 4-[3-[cyclopropyl-(4-fluorophenyl)methyl]-1H-pyrrolo[2,3-b]pyridin-5-yl]-3,5-dimethyl-isoxazole], the IC50 is reported as < 1 µM.
For `Cc1noc(C)c1-c1cnc2[nH]cc(C(O)c3cccc4c3OC(F)(F)O4)c2c1` (stereo not drawn) [P-0041, (2,2-difluoro-1,3-benzodioxol-4-yl)-[5-(3,5-dimethylisoxazol-4-yl)-1H-pyrrolo[2,3-b]pyridin-3-yl]methanol], the IC50 was < 1 µM.
With `Cc1noc(C)c1-c1cnc2c(-c3cnn(C)c3)cn(Cc3ccccc3C(F)(F)F)c2c1` [P-0188, 3,5-dimethyl-4-[3-(1-methylpyrazol-4-yl)-1-[[2-(trifluoromethyl)phenyl]methyl]pyrrolo[3,2-b]pyridin-6-yl]isoxazole] the IC50 was < 1 µM.
With `CCc1[nH]c2ncc(-c3c(C)noc3C)cc2c1C(O)c1cccc(OC(F)(F)F)c1` (stereo not drawn) [P-0043, [5-(3,5-dimethylisoxazol-4-yl)-2-ethyl-1H-pyrrolo[2,3-b]pyridin-3-yl]-[3-(trifluoromethoxy)phenyl]methanol] the IC50 was < 1 µM.
For `Cc1noc(C)c1-c1cnc2c(CC3CC3)cn(S(=O)(=O)C3CCCCC3)c2c1` [P-0075, 4-[1-cyclohexylsulfonyl-3-(cyclopropylmethyl)pyrrolo[3,2-b]pyridin-6-yl]-3,5-dimethyl-isoxazole], the IC50 was < 1 µM.
`Cc1noc(C)c1-c1cnc2c(-c3cnn(C4CCOC4)c3)cn(S(=O)(=O)C3CCCC3)c2c1` (stereo not drawn) [P-0153, 4-[1-cyclopentyl-sulfonyl-3-(1-tetrahydrofuran-3-ylpyrazol-4-yl)pyrrolo[3,2-b]pyridin-6-yl]-3,5-dimethyl-isoxazole] was tested, and the IC50 was < 1 µM.
With `Cc1nc(Cn2cc(-c3cnn(C)c3)c3ncc(-c4c(C)noc4C)cc32)cs1` [P-0170, 3,5-dimethyl-4-[3-(1-methylpyrazol-4-yl)-1-[(2-methylthiazol-4-yl)methyl]pyrrolo[3,2-b]pyridin-6-yl]isoxazole] the IC50 was < 1 µM.
With `Cc1noc(C)c1-c1cnc2c(-c3cnn(C(F)F)c3)cn(S(=O)(=O)CCC(F)(F)F)c2c1` [P-0136, 4-[3-[1-(difluoro-methyl)pyrazol-4-yl]-1-(3,3,3-trifluoro-propylsulfonyl)pyrrolo[3,2-b]pyridin-6-yl]-3,5-dimethyl-isoxazole] the IC50 was < 1 µM.
In the case of `Cc1noc(C)c1-c1cnc2ccn(C(CC#N)C3CCCC3)c2c1` (stereo not drawn) [P-0196, 3-cyclopentyl-3-[6-(3,5-dimethylisoxazol-4-yl)pyrrolo[3,2-b]pyridin-1-yl]propanenitrile], the IC50 is reported as < 1 µM.
In the case of `Cc1noc(C)c1-c1cnc2c(-c3cn[nH]c3)cn(S(=O)(=O)c3ccccc3)c2c1` [P-0163, 4-[1-(benzenesulfonyl)-3-(1H-pyrazol-4-yl)pyrrolo[3,2-b]pyridin-6-yl]-3,5-dimethyl-isoxazole], the IC50 is reported as < 1 µM.
For `Cc1noc(C)c1-c1cnc2c(-c3cnn(C)c3)cn(Cc3ccccc3F)c2c1` [P-0172, 4-[1-[(2-fluorophenyl)methyl]-3-(1-methylpyrazol-4-yl)pyrrolo[3,2-b]pyridin-6-yl]-3,5-dimethyl-isoxazole], the IC50 was < 1 µM.
`Cc1noc(C)c1-c1cnc2c(-c3cnn(C(F)F)c3)cn(S(=O)(=O)c3ccccc3)c2c1` [P-0131, 4-[1-(benzenesulfonyl)-3-[1-(difluoromethyl)pyrazol-4-yl]pyrrolo[3,2-b]pyridin-6-yl]-3,5-dimethyl-isoxazole] was tested, and the IC50 was < 1 µM.
`COc1ncc(-c2cn(S(=O)(=O)c3ccccc3)c3cc(-c4c(C)noc4C)cnc23)cn1` [P-0104, 4-[1-(benzenesulfonyl)-3-(2-methoxypyrimidin-5-yl)pyrrolo[3,2-b]pyridin-6-yl]-3,5-dimethyl-isoxazole] was tested, and the IC50 was < 1 µM.
With `COc1ncc(F)cc1Cc1c[nH]c2ncc(-c3c(C)noc3C)cc12` [P-0028, 4-[3-[(5-fluoro-2-methoxy-3-pyridyl)methyl)-1H-pyrrolo[2,3-b]pyridin-5-yl]-3,5-dimethyl-isoxazole] the IC50 was < 1 µM.
For `Cc1noc(C)c1-c1cnc2[nH]cc(CC3CCS(=O)(=O)CC3)c2c1` [P-0098, 4-[[5-(3,5-dimethylisoxazol-4-yl)-1H-pyrrolo[2,3-b]pyridin-3-yl]methyl]thiane 1,1-dioxide], the IC50 was < 1 µM.
For `COc1ncc(C(O)c2c[nH]c3ncc(-c4c(C)noc4C)cc23)cc1F` (stereo not drawn) [P-0025, [5-(3,5-dimethylisoxazol-4-yl)-1H-pyrrolo[2,3-b]pyridin-3-yl]-(5-fluoro-6-methoxy-3-pyridyl)methanol], the IC50 was < 1 µM.
For `Cc1noc(C)c1-c1cnc2c(-c3cnn(C(F)F)c3)cn(C(C)c3ccccc3)c2c1` (stereo not drawn) [P-0177, 4-[3-[1-(difluoromethyl)pyrazol-4-yl]-1-(1-phenylethyl)pyrrolo[3,2-b]pyridin-6-yl]-3,5-dimethyl-isoxazole], the IC50 was < 1 µM.
`Cc1noc(C)c1-c1cnc2c(-c3cnn(CC(F)(F)F)c3)cn(S(=O)(=O)C3CCCC3)c2c1` [P-0149, 4-[1-cyclopentyl-sulfonyl-3-[1-(2,2,2-trifluoroethyl)pyrazol-4-yl]pyrrolo[3,2-b]pyridin-6-yl]-3,5-dimethyl-isoxazole] was tested, and the IC50 was < 1 µM.
With `Cc1noc(C)c1-c1cnc2c(-c3cnn(C)c3)cn(Cc3cccnc3)c2c1` [P-0195, 3,5-dimethyl-4-[3-(1-methylpyrazol-4-yl)-1-(3-pyridylmethyl)pyrrolo[3,2-b]pyridin-6-yl]isoxazole] the IC50 was < 1 µM.
With `Cc1nn(C)cc1-c1cn(C(C)c2ccccc2)c2cc(-c3c(C)noc3C)cnc12` (stereo not drawn) [P-0205, 4-[3-(1,3-dimethylpyrazol-4-yl)-1-(1-phenylethyl)pyrrolo[3,2-b]pyridin-6-yl]-3,5-dimethyl-isoxazole] the IC50 was < 1 µM.
For `Cc1noc(C)c1-c1cnc2c(c1)c(S(=O)(=O)c1ccccc1)cn2-c1cnn(C)c1` [P-0185, 4-[3-(benzenesulfonyl)-1-(1-methylpyrazol-4-yl)pyrrolo[2,3-b]pyridin-5-yl]-3,5-dimethyl-isoxazole], the IC50 was < 1 µM.
`Cc1noc(C)c1-c1cnc2c(-c3cnn(CC(F)(F)F)c3)cn(S(=O)(=O)c3ccccc3)c2c1` [P-0146, 4-[1-(benzenesulfonyl)-3-[1-(2,2,2-trifluoroethyl)pyrazol-4-yl]pyrrolo[3,2-b]pyridin-6-yl]-3,5-dimethyl-isoxazole] was tested, and the IC50 was < 1 µM.
In the case of `Cc1noc(C)c1-c1cnc2[nH]cc(P(=O)(c3ccccc3)c3ccccc3)c2c1` [P-0166, 4-(3-diphenylphosphoryl-1H-pyrrolo[2,3-b]pyridin-5-yl)-3,5-dimethyl-isoxazole], the IC50 is reported as < 1 µM.
`CCn1cc(-c2cn(C(C)c3ccccc3)c3cc(-c4c(C)noc4C)cnc23)cn1` (stereo not drawn) [P-0200, 4-[3-(1-ethylpyrazol-4-yl)-1-(1-phenylethyl)pyrrolo[3,2-b]pyridin-6-yl]-3,5-dimethyl-isoxazole] was tested, and the IC50 was < 1 µM.
For `Cc1noc(C)c1-c1cnc2ccn(S(=O)(=O)N3CCCCC3)c2c1` [P-0067, 3,5-dimethyl-4-[1-(1-piperidylsulfonyl)pyrrolo[3,2-b]pyridin-6-yl]isoxazole], the IC50 was < 1 µM.
In the case of `C=CCn1cc(-c2cn(S(=O)(=O)C3CCCC3)c3cc(-c4c(C)noc4C)cnc23)cn1` [P-0128, 4-[3-(1-allylpyrazol-4-yl)-1-cyclopentyl-sulfonyl-pyrrolo[3,2-b]pyridin-6-yl]-3,5-dimethyl-isoxazole], the IC50 is reported as < 1 µM.
With `Cc1noc(C)c1-c1cnc2c(c1)c(CC1CCN(C(=O)C(F)(F)F)CC1)cn2C` [P-0106, 1-[4-[[5-(3,5-dimethylisoxazol-4-yl)-1-methyl-pyrrolo[2,3-b]pyridin-3-yl]methyl]-1-piperidyl]-2,2,2-trifluoro-ethanone] the IC50 was < 1 µM.
`Cc1ccc(S(=O)(=O)n2ccc3ncc(-c4c(C)noc4C)cc32)s1` [P-0062, 3,5-dimethyl-4-[1-[(5-methyl-2-thienyl)sulfonyl]pyrrolo[3,2-b]pyridin-6-yl]isoxazole] was tested, and the IC50 was < 1 µM.
For `CCCS(=O)(=O)n1cc(-c2cnn(CC(F)(F)F)c2)c2ncc(-c3c(C)noc3C)cc21` [P-0150, 3,5-dimethyl-4-[1-propylsulfonyl-3-[1-(2,2,2-trifluoroethyl)pyrazol-4-yl]pyrrolo[3,2-b]pyridin-6-yl]isoxazole], the IC50 was < 1 µM.

From patent US10519177B2, “Heterocyclic compounds and uses thereof” (Plexxikon Inc., priority 2013, dated 2019)
